For 28 compounds, inhibition and IC50 results are on record in US20130324522A1, “INSECT ODORANT RECEPTOR ANTAGONISTS” (THE ROCKEFELLER UNIVERSITY, priority 2010, published 2013).

The structures appear in SMILES notation. Like-named read-outs stand apart in the source and are kept apart here.

What all share (type): cell-based
For one test, the target named is OR8/OR7 (Anopheles gambiae, UniProt Q7PUT5+Q7QCC7). The experiment in a line: Ca2+-imaging of stable HEK293T cell line OR8/OR7. The conditions noted are these: for inhibition at 4 µM: HEK-293T, read-out: Percent Inhibition OR8 OR7. The procedure:
(§1) Full-length cDNAs for mosquito (Anopheles gambiae) odorant receptor (OR1, OR2, OR7, OR8, OR28), and fly (Drosophila melanogaster) odorant receptor (Or47a, Or83b), mouse TRP channel (TRPM8), and mouse serotonin receptor (5HT3) were obtained and subcloned into mammalian expression vectors. The following mammalian expression vectors were used:
Stable cell lines OR1/OR7, OR2/OR7, OR8/OR7, OR10/OR7, OR28/OR7 and TRPM8 were generated from HEK293T cells. HEK293T-based cell lines were cultured in DMEM supplemented with these additional antibiotics: 6 μg/mL blasticidin and 1 μg/mL puromycin, with the exception of the TRPM8 cell lines, which was cultured in DMEM supplemented with 1 μg/mL puromycin.
Cells were trypsinized and split into 35 mm dishes one day before transfection. Confluent cells (60-70%) in 35 mm dishes were transfected with 1 μg of insect OR(X) plasmids in pME18s-bla and 1 μg of OR7-pME18s-puro using lipofectamine 2000. For Anopheles odorant receptors, two plasmids were co-transfected into HEK cells: the ligand-specific receptor (OR1, OR2, OR8, OR28) and the corresponding olfactory co-receptor: OR7. Cell lines containing TRPM8 were transfected with single plasmid.
(§2) Stable cell lines were cultured in 10 cm dishes, and confluent cells (70-80%) were trypsinized. 10,000 cells/20 μL were transferred into each well of 384-well plates coated with poly-D-lysine, and cultured for 2 days. For Flip-In T-Rex cells (cell lines expressing Or47a/Or83b and 5HT3), 5 μL of tetracycline (5 μg/mL) were added 1 day before the assay. 20 μL of Ca-4 dye was loaded into each well for 1.5 hr at room temperature in the dark, and the dye-loaded plates were subjected to Ca^2+-imaging using a Hamamatsu FDSS6000 real time fluorescence plate reader. Odorant solutions (9× final concentration) were prepared by dissolving 1M stock solutions into Hank's Buffered Salt Solution (HBSS), and 30 μL of odor solution was transferred to each well in 384-well plates.
(§3) Compounds ([…] in DMSO) were stored in 384-well plates, and last two columns (32 wells total) contained only DMSO. 200 nL of small compounds were transferred into the odorant plates before the assay using the Perkin-Elmer Janus workstation. The odorant plates were spun down to remove air bubbles, and placed on the FDSS6000 plate loader, and 5 μL of odorant solution was applied to the cell plate on the FDSS6000. Ca^2+ increase was monitored with fluorescence at 525 nm by excitation at 485 nm.

Another test addresses T1, mOREG (Mus musculus, UniProt Q920P2).
T1 sequence (Q920P2 1-313): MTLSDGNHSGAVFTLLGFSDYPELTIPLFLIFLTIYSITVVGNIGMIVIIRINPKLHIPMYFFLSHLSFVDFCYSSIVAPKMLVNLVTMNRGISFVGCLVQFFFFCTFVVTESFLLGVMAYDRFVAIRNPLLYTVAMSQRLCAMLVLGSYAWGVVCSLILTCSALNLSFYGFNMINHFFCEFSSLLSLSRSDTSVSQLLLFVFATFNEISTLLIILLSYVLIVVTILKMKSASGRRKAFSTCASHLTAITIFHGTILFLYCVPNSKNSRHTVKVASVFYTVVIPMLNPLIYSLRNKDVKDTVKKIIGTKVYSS
Kind of test: Ca2+-imaging, control receptor mOREG. Particulars: for inhibition at 4 µM: read-out: Percent Inhibition mOREG. On the procedure: as §2, with “plates. The last two columns of the plate (32 wells total) were used as control wells as follows: • negative control with HBSS buffer (16 wells) • positive control with ligands (16 wells).” for “plates.”
as §3

The target in test [1] is T2, serotonin receptor (5HT3) (Mus musculus, UniProt P23979).
T2 construct: Full-length cDNAs for mosquito (Anopheles gambiae) odorant receptor; expressed in transfected cells
T2 sequence (P23979 24-489): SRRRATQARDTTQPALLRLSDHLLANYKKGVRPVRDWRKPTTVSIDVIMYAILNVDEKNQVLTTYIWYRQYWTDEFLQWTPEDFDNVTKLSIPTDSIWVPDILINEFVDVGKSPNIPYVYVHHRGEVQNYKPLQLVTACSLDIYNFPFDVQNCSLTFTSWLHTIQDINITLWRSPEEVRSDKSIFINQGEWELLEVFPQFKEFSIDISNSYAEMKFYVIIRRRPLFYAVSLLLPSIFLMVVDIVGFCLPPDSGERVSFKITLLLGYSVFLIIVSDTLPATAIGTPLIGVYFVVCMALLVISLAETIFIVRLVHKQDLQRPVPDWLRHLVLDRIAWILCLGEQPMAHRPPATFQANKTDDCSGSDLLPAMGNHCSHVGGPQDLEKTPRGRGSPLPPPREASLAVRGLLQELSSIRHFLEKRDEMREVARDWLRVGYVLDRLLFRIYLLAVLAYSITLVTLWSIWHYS
The experiment in a line: Ca2+-imaging of stable Flip-In T-Rex cell line 5HT3. The conditions noted are these: for inhibition at 4 µM: read-out: Percent Inhibition 5HT3. The procedure:
as §1
Stable cell lines Or47a/Or83b and 5HT3 were generated from Flip-In T-Rex cells. Flip-In T-Rex-based cell lines were cultured in DMEM supplemented with these additional antibiotics: 6 μg/mL blasticidin and 100 μg/mL hygromycin.
Cells were trypsinized and split into 35 mm dishes 1 day before transfection. Confluent cells (60-70%) in 35 mm dishes were co-transfected with 1 μg of Or47a/Or83b plasmid in pcDNA5/FRT/TO/IRES plus the pOG44 plasmid or 1 μg of 5HT3 plasmid in pcDNA5/FRT/TO plus the pOG44 plasmid using lipofectamine 2000. Co-transfection of pOG44 and pcDNA5/FRT/TO/IRES or pcDNA5/FRT/TO allows expression of Flp recombinase and integration of the pcDNA5 plasmid into the genome via the FRT site. After one day of incubation, the transfected cells were transferred into 10 cm dishes with DMEM containing antibiotics: 20 μg/mL of hygromycin and 6 μg/mL of blasticidin. The concentration of Hygromycin was increased to 100 μg/mL when the population of cells became 30-40% confluent. The cells were cultured by changing medium every two days until cell clumps appeared. The clumps were picked and transferred into 96 well plates with DMEM containing 100 μg/mL of Hygromycin and 6 μg/mL of blasticidin. The cells were grown and transferred to 24 well plates, and ligand-evoked calcium increases were tested using the Hamamatsu FDSS6000 real time fluorescence plate reader.
as §2, §3

The mark [2] stands for this setting: ligand 1-octen-3-ol 30 μM, read-out: IC50 OR8 OR7.
[3] abbreviates: ligand serotonin 10 μM, read-out: IC50 5HT3.

OR8/OR7, sequence (Q7QCC7 whole entry): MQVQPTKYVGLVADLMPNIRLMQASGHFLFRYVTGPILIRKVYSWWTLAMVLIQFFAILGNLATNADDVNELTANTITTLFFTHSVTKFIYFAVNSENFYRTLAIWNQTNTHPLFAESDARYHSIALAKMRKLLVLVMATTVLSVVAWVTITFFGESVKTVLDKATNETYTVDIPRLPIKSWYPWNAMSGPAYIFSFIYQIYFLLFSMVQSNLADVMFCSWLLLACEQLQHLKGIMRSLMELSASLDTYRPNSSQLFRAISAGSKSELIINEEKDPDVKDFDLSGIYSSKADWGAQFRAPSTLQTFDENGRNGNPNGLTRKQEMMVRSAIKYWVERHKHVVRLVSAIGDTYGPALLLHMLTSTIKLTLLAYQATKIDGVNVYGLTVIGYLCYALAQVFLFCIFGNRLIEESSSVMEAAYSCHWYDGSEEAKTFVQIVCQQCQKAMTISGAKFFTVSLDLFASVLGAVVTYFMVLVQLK
OR8/OR7, sequence (Q7PUT5 entry or part of it): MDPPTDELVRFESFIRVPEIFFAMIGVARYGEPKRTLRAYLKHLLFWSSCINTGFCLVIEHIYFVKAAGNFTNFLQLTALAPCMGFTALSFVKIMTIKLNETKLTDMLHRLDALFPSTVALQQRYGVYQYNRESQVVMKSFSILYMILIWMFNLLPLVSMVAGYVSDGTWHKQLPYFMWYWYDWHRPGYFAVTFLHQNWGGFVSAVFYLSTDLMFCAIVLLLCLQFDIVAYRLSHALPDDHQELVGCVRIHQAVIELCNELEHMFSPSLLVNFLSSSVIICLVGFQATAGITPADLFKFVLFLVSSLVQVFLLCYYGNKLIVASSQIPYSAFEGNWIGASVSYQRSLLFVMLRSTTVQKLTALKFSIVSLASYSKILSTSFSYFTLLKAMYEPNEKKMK

For orientation: inhibition means the drop in the measured response relative to a control, in per cent. Regarding `C=CCNC(=O)C(NC(=O)c1cccc(C)c1)C1CCN(C(=O)c2cccc(Br)c2)CC1` (stereo not drawn) [RU-0039123], the inhibition at 4 µM (at OR8/OR7 (compound applied at 4 μM); at mOREG (compound applied at 4 μM); in test [1] (compound applied at 4 μM)) was 26 to 50% each time.
In the case of `COc1ccccc1CC(=O)N1CCOC(COc2ccc(C)cc2)C1` (stereo not drawn) [RU-0050390], the inhibition at 4 µM (at OR8/OR7 (compound applied at 4 μM); at mOREG (compound applied at 4 μM); in test [1] (compound applied at 4 μM)) was < 25% in each case.
`Cc1cc(N(C)C2CCCCC2)nc(SCc2cccc(C(=O)N3CCCC3)c2)n1` [RU-0034108]: the inhibition at 4 µM (on OR8/OR7 (compound applied at 4 μM); on mOREG (compound applied at 4 μM); in test [1] (compound applied at 4 μM)) was < 25% each time.
By IC50 is commonly meant the point on the concentration scale where inhibition reaches its midpoint. `CN(Cc1nccn1Cc1c(F)cccc1Cl)C(=O)C1CCCC1` [RU-I5]: the IC50 (on OR8/OR7 (setting [2]); in test [1] (setting [3])) was 2 to 20 µM each time.
Take `C=CCN(Cc1nccn1Cc1ccc(Cl)c(Cl)c1)C(=O)c1ccccc1F` [RU-0047955]: the inhibition at 4 µM (on OR8/OR7 (compound applied at 4 μM); at mOREG (compound applied at 4 μM); in test [1] (compound applied at 4 μM)) was < 25% in each case.
Regarding `Fc1ccccc1/C=N/Nc1nc(N2CCCCC2)nc(N2CCOCC2)n1` [RU-0018338], the inhibition at 4 µM is < 25% on OR8/OR7 (compound applied at 4 μM), 26 to 50% at mOREG (compound applied at 4 μM) and 26 to 50% in test [1] (compound applied at 4 μM).
In the case of `CCc1cc(N2CCCC2)nc(SCc2ccc(C(=O)N3CCOCC3)o2)n1` [RU-0047568], the inhibition at 4 µM (on OR8/OR7 (compound applied at 4 μM); on mOREG (compound applied at 4 μM); in test [1] (compound applied at 4 μM)) was 26 to 50% throughout.
Take `COc1cccc(-c2nnc(SCCCC(=O)N3CCN(C(=O)CC(C)(C)C)C(C)C3)n2-c2ccc(C)cc2)c1` (stereo not drawn) [RU-0071818]: the inhibition at 4 µM on OR8/OR7 (compound applied at 4 μM) was < 25%; at mOREG (compound applied at 4 μM), 51 to 74%; in test [1] (compound applied at 4 μM), < 25%. At mOREG (Table B), the half-inhibitory concentration (IC50) was > 1 µM.
Take `CSc1nc(NC(C)C)nc(NC(C)C)n1` [RU-T2]: the values for the IC50 (at OR8/OR7; in test [1] (setting [3])) were < 2 µM and 2 to 20 µM, respectively.
With `C=CCN(Cc1nccn1Cc1ccccc1C)C(=O)CC(C)C` [RU-0058298], the inhibition at 4 µM on OR8/OR7 (compound applied at 4 μM) was < 25%; on mOREG (compound applied at 4 μM), 26 to 50%; in test [1] (compound applied at 4 μM), 26 to 50%.
In the case of `O=C(CCC1CCN(C(=O)c2cccc(-n3cccn3)c2)CC1)Nc1ccccc1` [RU-0032465], the results for the inhibition at 4 µM (on OR8/OR7 (compound applied at 4 μM); on mOREG (compound applied at 4 μM); in test [1] (compound applied at 4 μM)) were 51 to 74%, 26 to 50% and < 25%, respectively. Besides, the IC50 at OR8/OR7 (Table B, read-out: IC50 OR8) was > 1 µM.
As for `CC(C)CN(Cc1nccn1Cc1c(F)cccc1Cl)C(=O)c1ccc(F)cc1` [RU-0048054], the inhibition at 4 µM (on OR8/OR7 (compound applied at 4 μM); on mOREG (compound applied at 4 μM); in test [1] (compound applied at 4 μM)) was < 25% throughout.
Turning to `CCOC(=O)CCC(=O)N(CCc1ccccc1)CC(=O)Nc1cc(C(C)(C)C)nn1-c1ccccc1C` [RU-0072462], the inhibition at 4 µM (on OR8/OR7 (compound applied at 4 μM); at mOREG (compound applied at 4 μM); in test [1] (compound applied at 4 μM)) was < 25% in each case.
For `O=C(C1CCCC1)N(Cc1nccn1CCc1c(F)cccc1Cl)C1CC1` [RU-I2], the IC50 (on OR8/OR7 (setting [2]); in test [1] (setting [3])) was 2 to 20 µM throughout.
For the compound `COCCCN(Cc1c(-c2ccccc2)noc1N1CCCC1)C(=O)c1ccc(F)cc1` [RU-0037386], the inhibition at 4 µM at OR8/OR7 (compound applied at 4 μM) is 51 to 74%; on mOREG (compound applied at 4 μM) it was 26 to 50%; in test [1] (compound applied at 4 μM) it was 26 to 50%. For the same compound, on OR8/OR7 (Table B, read-out: IC50 OR8), the IC50 is > 1 µM.
In the case of `CCN(CC)C(=O)Oc1ccc2c(ccn2Cc2cccc(C)c2)c1NC(=O)CCCCC(=O)OC` [RU-0075445], the inhibition at 4 µM (on OR8/OR7; on mOREG; in test [1]) was < 25% throughout.
As to `CC(C)Nc1nc(NC(C)C)nc(C(F)(F)F)n1` [RU-T8], the IC50 against OR8/OR7 was 2 to 20 µM; in test [1] it was > 20 µM.
With `O=C(c1nccn1Cc1c(F)cccc1Cl)N(CC1CCCC1)C1CC1` [RU-I3], the IC50 was < 2 µM at OR8/OR7 (setting [2]) and 2 to 20 µM in test [1] (setting [3]).
On to `CC(C)Nc1nc(Cl)nc(N(C)C(C)C)n1` [RU-T7], for which the IC50 against OR8/OR7 is < 2 µM; in test [1] it was > 20 µM.
With `CC(C)Nc1nc(Cl)nc(NC(C)C)n1` [RU-T1], the results for the IC50 (against OR8/OR7; in test [1] (setting [3])) were > 220 µM and > 20 µM, respectively.
Turning to `CCN(CC)C(=O)c1cccc(C)c1` [DEET, N,N-diethyl-m-toluamide, reference compound], the IC50 (at OR8/OR7 (setting [2]); in test [1] (setting [3])) was > 50 µM each time.
With `CCNc1nc(Cl)nc(NC(C)C)n1` [RU-T5], the results for the concentration for half-maximal inhibition (IC50) (on OR8/OR7; in test [1] (setting [3])) were < 2 µM and > 20 µM, respectively.
For `CC(C)Nc1nc(Cl)nc(NCc2ccccc2)n1` [RU-T9], the figures for the IC50 (on OR8/OR7; in test [1]) were > 220 µM and > 50 µM, respectively.
In the same order, the values of `Cc1nc(NC(C)C)nc(NC(C)C)n1` [RU-T6] are < 2 µM and > 20 µM.
On to `C=CCN(Cc1nccn1Cc1cccc(F)c1)C(=O)c1ccccc1F` [RU-I1], for which the IC50 (at OR8/OR7 (setting [2]); in test [1] (setting [3])) was 20 to 50 µM in each case.
In the case of `CCNc1nc(NC(C)C)nc(SC)n1` [RU-T3], the IC50 lay in the range of 2 to 20 µM against OR8/OR7 and 20 to 50 µM in test [1] (setting [3]).
The like results for `CCNc1nc(NCC)nc(SC)n1` [RU-T4] were, in that order, 2 to 20 µM and 20 to 50 µM.
`Fc1cccc(Cl)c1Cn1ccnc1CN(CC1CCCC1)C1CC1` [RU-I4]: the IC50 on OR8/OR7 (setting [2]) was > 220 µM; in test [1] (setting [3]), > 20 µM.
